In patent US8962631B2 (Vertex Pharmaceuticals Incorporated, priority 2010, dated 2015):
pKi: −log10 of the molar value.

Biological target: T1, full-length ATR (Homo sapiens, UniProt Q13535)
T1 construct: Assays were carried out at 25° C. in the presence of 5 nM full-length ATR
Experiment: ATR Inhibition Assay (radioactive-phosphate incorporation)
Assay type: biochemical
Conditions: Ki(app); 10 μM ATP, 800 μM target peptide, 5 nM full-length ATR, 25° C.
Experimental: Compounds were screened for their ability to inhibit ATR kinase using a radioactive-phosphate incorporation assay. Assays were carried out in a mixture of 50 mM Tris/HCl (pH 7.5), 10 mM MgCl2 and 1 mM DTT. Final substrate concentrations were 10 μM [γ-33P]ATP (3 mCi 33P ATP/mmol ATP, Perkin Elmer) and 800 μM target peptide ([…] (SEQ. ID NO: 1)).
Assays were carried out at 25° C. in the presence of 5 nM full-length ATR. An assay stock buffer solution was prepared containing all of the reagents listed above, with the exception of ATP and the test compound of interest. 13.5 μL of the stock solution was placed in a 96 well plate followed by addition of 2 μL of DMSO stock containing serial dilutions of the test compound (typically starting from a final concentration of 15 μM with 3-fold serial dilutions) in duplicate (final DMSO concentration 7%). The plate was pre-incubated for 10 minutes at 25° C. and the reaction initiated by addition of 15 μL [γ-33P]ATP (final concentration 10 μM).
The reaction was stopped after 24 hours by the addition of 30 μL 0.1M phosphoric acid containing 2 mM ATP. A multiscreen phosphocellulose filter 96-well plate (Millipore, Cat no. MAPHN0B50) was pretreated with 100 μL 0.2M phosphoric acid prior to the addition of 45 μL of the stopped assay mixture. The plate was washed with […] 0.2M phosphoric acid. After drying, 100 μL Optiphase ‘SuperMix’ liquid scintillation cocktail (Perkin Elmer) was added to the well prior to scintillation counting (1450 Microbeta Liquid Scintillation Counter, Wallac).
After removing mean background values for all of the data points, Ki(app) data were calculated from non-linear regression analysis of the initial rate data using the Prism software package (GraphPad Prism version 3.0cx for Macintosh, GraphPad Software, San Diego Calif., USA).

T1 sequence (Q13535 whole entry): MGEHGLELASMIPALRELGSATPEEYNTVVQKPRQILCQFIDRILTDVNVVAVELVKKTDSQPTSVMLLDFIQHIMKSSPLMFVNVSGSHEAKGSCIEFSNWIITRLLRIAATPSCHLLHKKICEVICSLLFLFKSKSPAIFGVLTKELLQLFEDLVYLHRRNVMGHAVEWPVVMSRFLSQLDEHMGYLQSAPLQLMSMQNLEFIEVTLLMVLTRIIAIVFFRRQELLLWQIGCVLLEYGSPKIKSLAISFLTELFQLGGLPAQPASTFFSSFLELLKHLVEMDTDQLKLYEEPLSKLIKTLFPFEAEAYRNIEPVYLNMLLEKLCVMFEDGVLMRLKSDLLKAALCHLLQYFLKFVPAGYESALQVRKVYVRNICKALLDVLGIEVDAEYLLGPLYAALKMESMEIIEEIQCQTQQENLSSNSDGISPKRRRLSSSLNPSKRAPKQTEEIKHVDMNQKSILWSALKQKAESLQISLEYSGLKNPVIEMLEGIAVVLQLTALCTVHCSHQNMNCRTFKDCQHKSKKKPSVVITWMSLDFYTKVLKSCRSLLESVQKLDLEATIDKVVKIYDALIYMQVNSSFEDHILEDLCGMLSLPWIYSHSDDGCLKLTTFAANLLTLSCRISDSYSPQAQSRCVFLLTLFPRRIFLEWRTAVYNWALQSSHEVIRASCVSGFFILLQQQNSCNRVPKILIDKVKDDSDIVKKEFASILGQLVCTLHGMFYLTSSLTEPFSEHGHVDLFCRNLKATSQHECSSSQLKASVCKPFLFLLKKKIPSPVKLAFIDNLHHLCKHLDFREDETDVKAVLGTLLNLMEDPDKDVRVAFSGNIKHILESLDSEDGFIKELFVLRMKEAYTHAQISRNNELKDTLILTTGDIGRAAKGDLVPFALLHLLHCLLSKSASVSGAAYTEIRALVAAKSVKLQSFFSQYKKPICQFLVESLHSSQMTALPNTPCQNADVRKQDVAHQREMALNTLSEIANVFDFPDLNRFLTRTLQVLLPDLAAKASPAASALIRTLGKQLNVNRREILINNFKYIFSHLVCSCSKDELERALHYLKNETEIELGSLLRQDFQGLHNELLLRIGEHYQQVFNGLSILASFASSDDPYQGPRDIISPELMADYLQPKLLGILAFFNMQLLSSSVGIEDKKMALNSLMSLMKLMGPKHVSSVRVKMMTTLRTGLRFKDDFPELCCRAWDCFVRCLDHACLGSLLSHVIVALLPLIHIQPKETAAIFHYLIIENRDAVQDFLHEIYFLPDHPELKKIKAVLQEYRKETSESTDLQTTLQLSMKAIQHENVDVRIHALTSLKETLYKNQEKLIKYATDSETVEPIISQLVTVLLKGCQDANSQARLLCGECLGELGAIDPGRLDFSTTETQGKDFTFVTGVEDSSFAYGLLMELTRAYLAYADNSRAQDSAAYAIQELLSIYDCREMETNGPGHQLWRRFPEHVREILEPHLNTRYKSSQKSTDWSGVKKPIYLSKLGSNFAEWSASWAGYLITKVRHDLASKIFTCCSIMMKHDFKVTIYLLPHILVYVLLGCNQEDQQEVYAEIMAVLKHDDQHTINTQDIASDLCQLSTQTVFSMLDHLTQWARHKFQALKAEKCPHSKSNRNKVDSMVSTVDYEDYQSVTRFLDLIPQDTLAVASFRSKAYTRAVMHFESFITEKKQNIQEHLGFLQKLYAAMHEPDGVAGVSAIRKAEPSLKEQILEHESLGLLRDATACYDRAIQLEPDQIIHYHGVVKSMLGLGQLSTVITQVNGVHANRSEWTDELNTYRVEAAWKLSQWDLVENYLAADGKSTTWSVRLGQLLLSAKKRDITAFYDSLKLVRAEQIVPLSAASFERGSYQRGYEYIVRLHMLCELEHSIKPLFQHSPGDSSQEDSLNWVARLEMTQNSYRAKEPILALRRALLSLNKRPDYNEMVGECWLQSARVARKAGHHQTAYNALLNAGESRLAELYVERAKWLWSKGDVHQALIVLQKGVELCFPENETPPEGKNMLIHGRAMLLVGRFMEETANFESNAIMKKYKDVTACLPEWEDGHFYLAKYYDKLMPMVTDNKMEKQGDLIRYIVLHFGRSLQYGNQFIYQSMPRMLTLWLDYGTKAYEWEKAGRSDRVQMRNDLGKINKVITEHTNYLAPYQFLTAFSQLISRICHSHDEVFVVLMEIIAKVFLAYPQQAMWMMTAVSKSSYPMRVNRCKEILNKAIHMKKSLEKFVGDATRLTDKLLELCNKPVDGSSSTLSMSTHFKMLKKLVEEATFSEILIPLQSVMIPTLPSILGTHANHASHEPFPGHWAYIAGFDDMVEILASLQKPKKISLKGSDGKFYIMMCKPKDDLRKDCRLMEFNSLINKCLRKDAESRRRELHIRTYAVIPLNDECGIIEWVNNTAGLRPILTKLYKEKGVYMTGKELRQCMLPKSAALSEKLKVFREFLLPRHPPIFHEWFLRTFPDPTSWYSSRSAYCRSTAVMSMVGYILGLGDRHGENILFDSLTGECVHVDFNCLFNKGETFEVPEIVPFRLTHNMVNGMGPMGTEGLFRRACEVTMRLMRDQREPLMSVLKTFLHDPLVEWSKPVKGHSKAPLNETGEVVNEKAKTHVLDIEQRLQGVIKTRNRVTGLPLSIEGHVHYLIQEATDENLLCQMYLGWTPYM

pKi | Compound
5.10 to 6.00 | Nc1ncc(Sc2cccc(Cl)c2)nc1-c1nc2ccccc2[nH]1 [II-39, 3-(1H-Benzimidazol-2-yl)-5-(3-chlorophenyl)sulfanyl-pyrazin-2-amine]
≥ 6.30 | Cc1ccc2nc(-c3nc(C(=O)NCc4ccccc4)cnc3N)[nH]c2c1 [II-43, 5-Amino-N-benzyl-6-(6-methyl-1H-benzimidazol-2-yl)pyrazine-2-carboxamide]
5.10 to 6.00 | Cc1ccc2nc(-c3nc(C(=O)Nc4ccc(N5CCN(C)CC5)nc4)cnc3N)[nH]c2c1 [II-45, 5-Amino-6-(6-methyl-1H-benzimidazol-2-yl)-N-[6-(4-methylpiperazin-1-yl)-3-pyridyl]pyrazine-2-carboxamide]
5.10 to 6.00 | CCN(CC)C(=O)c1cnc(N)c(-c2nc3ccc(C)cc3[nH]2)n1 [II-46, 5-Amino-N,N-diethyl-6-(6-methyl-1H-benzimidazol-2-yl)pyrazine-2-carboxamide]
6.00 to 6.30 | Cc1ccc2nc(-c3nc(C(=O)NCCN4CCCC4)cnc3N)[nH]c2c1 [II-51, 5-Amino-6-(6-methyl-1H-benzimidazol-2-yl)-N-(2-pyrrolidin-1-ylethyl)pyrazine-2-carboxamide]
5.10 to 6.00 | Cc1ccc2nc(-c3nc(C(=O)N4CCOCC4)cnc3N)[nH]c2c1 [II-53, [5-Amino-6-(6-methyl-1H-benzimidazol-2-yl)pyrazin-2-yl]-morpholino-methanone]
≥ 6.30 | COC(=O)CNC(=O)c1cnc(N)c(-c2nc3ccc(C)cc3[nH]2)n1 [II-55, Methyl 2-[[5-amino-6-(6-methyl-1H-benzimidazol-2-yl)pyrazine-2-carbonyl]amino]acetate]
6.00 to 6.30 | Cc1ccc2nc(-c3nc(C(=O)N(C)Cc4ccccc4)cnc3N)[nH]c2c1 [II-58, 5-Amino-N-benzyl-N-methyl-6-(6-methyl-1H-benzimidazol-2-yl)pyrazine-2-carboxamide]
6.00 to 6.30 | Cc1ccc2nc(-c3nc(C(=O)N[C@@H](C)c4ccccc4)cnc3N)[nH]c2c1 [II-59, 5-Amino-6-(6-methyl-1H-benzimidazol-2-yl)-N-[(1S)-1-phenylethyl]pyrazine-2-carboxamide]
≥ 6.30 | Cc1ccc2nc(-c3nc(C(=O)N4CCC4)cnc3N)[nH]c2c1 [II-60, [5-Amino-6-(6-methyl-1H-benzimidazol-2-yl)pyrazin-2-yl]-(azetidin-1-yl)methanone]
5.10 to 6.00 | Cc1ccc2nc(-c3nc(C(=O)NCC(=O)N(C)C)cnc3N)[nH]c2c1 [II-61, 5-Amino-N-[2-(dimethylamino)-2-oxo-ethyl]-6-(6-methyl-1H-benzimidazol-2-yl)pyrazine-2-carboxamide]
≥ 6.30 | Cc1ccc2nc(-c3nc(C(=O)NCc4ccc(F)cc4)cnc3N)[nH]c2c1 [II-64, 5-Amino-N-[(4-fluorophenyl)methyl]-6-(6-methyl-1H-benzimidazol-2-yl)pyrazine-2-carboxamide]
≥ 6.30 | COc1ccc(CNC(=O)c2cnc(N)c(-c3nc4ccc(C)cc4[nH]3)n2)cc1 [II-65, 5-Amino-N-[(4-methoxyphenyl)methyl]-6-(6-methyl-1H-benzimidazol-2-yl)pyrazine-2-carboxamide]
5.10 to 6.00 | C=CCNC(=O)c1cnc(N)c(-c2nc3ccc(C)cc3[nH]2)n1 [II-66, N-Allyl-5-amino-6-(6-methyl-1H-benzimidazol-2-yl)pyrazine-2-carboxamide]
5.10 to 6.00 | Cc1ccc2nc(-c3nc(C(=O)NCC(C)O)cnc3N)[nH]c2c1 (centres unmarked) [II-67, 5-Amino-N-(2-hydroxypropyl)-6-(6-methyl-1H-benzimidazol-2-yl)pyrazine-2-carboxamide]
6.00 to 6.30 | Cc1ccc2nc(-c3nc(C(=O)NCCc4ccccc4)cnc3N)[nH]c2c1 [II-69, 5-Amino-6-(6-methyl-1H-benzimidazol-2-yl)-N-phenethyl-pyrazine-2-carboxamide]
5.10 to 6.00 | Cc1ccc2nc(-c3nc(C(=O)NC4CCC4)cnc3N)[nH]c2c1 [II-74, 5-Amino-N-cyclobutyl-6-(6-methyl-1H-benzimidazol-2-yl)pyrazine-2-carboxamide]

Second part, the molecule before the results:

Compound | pKi
Nc1ncc(Sc2ccccc2)nc1C(=O)Nc1ccccc1 [II-37, 3-Amino-N-phenyl-6-phenylsulfanyl-pyrazine-2-carboxamide] | 5.10 to 6.00
Cc1ccc2nc(-c3nc(C(=O)Nc4cccnc4)cnc3N)[nH]c2c1 [II-42, 5-Amino-6-(6-methyl-1H-benzimidazol-2-yl)-N-(3-pyridyl)pyrazine-2-carboxamide] | 6.00 to 6.30
Cc1ccc2nc(-c3nc(C(=O)N(C)c4ccccc4)cnc3N)[nH]c2c1 [II-44, 5-Amino-N-methyl-6-(6-methyl-1H-benzimidazol-2-yl)-N-phenyl-pyrazine-2-carboxamide] | 6.00 to 6.30
COC(=O)c1cnc(N)c(-c2nc3ccc(C)cc3[nH]2)n1 [II-47, Methyl 5-amino-6-(6-methyl-1H-benzo[d]imidazol-2-yl)pyrazine-2-carboxylate] | ≥ 6.30
Cc1ccc2nc(-c3nc(C(=O)NCC#N)cnc3N)[nH]c2c1 [II-48, 5-Amino-N-(cyanomethyl)-6-(6-methyl-1H-benzimidazol-2-yl)pyrazine-2-carboxamide] | ≥ 6.30
Cc1ccc2nc(-c3nc(C(=O)NCC4CCCC4)cnc3N)[nH]c2c1 [II-49, 5-Amino-N-(cyclopentylmethyl)-6-(6-methyl-1H-benzimidazol-2-yl)pyrazine-2-carboxamide] | ≥ 6.30
Cc1ccc2nc(-c3nc(C(=O)NCC(N)=O)cnc3N)[nH]c2c1 [II-50, 5-Amino-N-(2-amino-2-oxo-ethyl)-6-(6-methyl-1H-benzimidazol-2-yl)pyrazine-2-carboxamide] | 5.10 to 6.00
Cc1ccc2nc(-c3nc(C(=O)NCC4CCCO4)cnc3N)[nH]c2c1 (centres unmarked) [II-52, 5-Amino-6-(6-methyl-1H-benzimidazol-2-yl)-N-(tetrahydrofuran-2-ylmethyl)pyrazine-2-carboxamide] | ≥ 6.30
C#CCNC(=O)c1cnc(N)c(-c2nc3ccc(C)cc3[nH]2)n1 [II-54, 5-Amino-6-(6-methyl-1H-benzimidazol-2-yl)-N-prop-2-ynyl-pyrazine-2-carboxamide] | ≥ 6.30
Cc1ccc2nc(-c3nc(C(=O)NCC4CC4)cnc3N)[nH]c2c1 [II-56, 5-Amino-N-(cyclopropylmethyl)-6-(6-methyl-1H-benzimidazol-2-yl)pyrazine-2-carboxamide] | ≥ 6.30
Cc1ccc2nc(-c3nc(C(=O)NCC(=O)C(C)(C)C)cnc3N)[nH]c2c1 [II-62, 5-Amino-N-(3,3-dimethyl-2-oxo-butyl)-6-(6-methyl-1H-benzimidazol-2-yl)pyrazine-2-carboxamide] | 5.10 to 6.00
Cc1ccc2nc(-c3nc(C(=O)NCc4ccco4)cnc3N)[nH]c2c1 [II-68, 5-Amino-N-(2-furylmethyl)-6-(6-methyl-1H-benzimidazol-2-yl)pyrazine-2-carboxamide] | 6.00 to 6.30
Cc1ccc2nc(-c3nc(C(=O)NCc4cccnc4)cnc3N)[nH]c2c1 [II-70, 5-Amino-6-(6-methyl-1H-benzimidazol-2-yl)-N-(3-pyridylmethyl)pyrazine-2-carboxamide] | 6.00 to 6.30
COCCNC(=O)c1cnc(N)c(-c2nc3ccc(C)cc3[nH]2)n1 [II-71, 5-Amino-N-(2-methoxyethyl)-6-(6-methyl-1H-benzimidazol-2-yl)pyrazine-2-carboxamide] | 5.10 to 6.00
Cc1ccc2nc(-c3nc(C(=O)NCCC(F)(F)F)cnc3N)[nH]c2c1 [II-73, 5-Amino-6-(6-methyl-1H-benzimidazol-2-yl)-N-(3,3,3-trifluoropropyl)pyrazine-2-carboxamide] | 6.00 to 6.30
N#CCNC(=O)c1cnc(N)c(-c2nc3ccccc3[nH]2)n1 [II-75, 5-Amino-6-(1H-benzimidazol-2-yl)-N-(cyanomethyl)pyrazine-2-carboxamide] | ≥ 6.30

Same assay, conditions: at 15 uM compound; read-out: percent inhibition against ATR

inhibition at 15 µM [%] | Compound
15 to 24 | Nc1ncc(Sc2ccccc2)nc1-c1nc2ccccc2[nH]1 [II-38, 3-(1H-Benzimidazol-2-yl)-5-phenylsulfanyl-pyrazin-2-amine]
25 to 45 | Cc1ccc2nc(-c3nc(C(=O)Nc4ccccc4)cnc3N)[nH]c2c1 [II-41, 5-Amino-6-(6-methyl-1H-benzimidazol-2-yl)-N-phenyl-pyrazine-2-carboxamide]
25 to 45 | Cc1ccc2nc(-c3nc(C(=O)NCC4CCCCC4)cnc3N)[nH]c2c1 [II-63, 5-Amino-N-(cyclohexylmethyl)-6-(6-methyl-1H-benzimidazol-2-yl)pyrazine-2-carboxamide]
15 to 24 | Cc1ccc2nc(-c3nc(C(=O)NC4CCCC4)cnc3N)[nH]c2c1 [II-72, 5-Amino-N-cyclopentyl-6-(6-methyl-1H-benzimidazol-2-yl)pyrazine-2-carboxamide]

Same assay, conditions: at 30 uM compound; read-out: percent inhibition against ATR

inhibition at 30 µM [%] | Compound
40 to 50 | Nc1ncc(Sc2cccc(F)c2)nc1-c1nc2ccccc2[nH]1 [II-40, 3-(1H-Benzimidazol-2-yl)-5-(3-fluorophenyl)sulfanyl-pyrazin-2-amine]
